Counter-ions that a name gives are not always drawn.

The first test deals with FYNα (Homo sapiens, UniProt P06241). Put plainly: FYNα kinase assay, LANCE Ultra TR-FRET. Type of test: biochemical. The settings on record: 50 μM; mean ± SD; n.i. = no inhibition. On the procedure: GSK-3β and FYNα kinase assays were run in 384-well microplates (OptiPlate-384, White, PerkinElmer) in a total reaction volume of 20 μL. The inhibitory potency against human recombinant GSK-3β and FYNα (Carna Biosciences) was evaluated using the LANCE Ultra (PerkinElmer) time-resolved fluorescence resonance energy transfer (TR-FRET) by measuring the phosphorylation of the ULight-labeled substrate, according to the manufacturer’s instructions. The synthetic peptide surrounding Ser641 of human muscle glycogen synthase (ULight-GS (Ser641/pSer657)) and the synthetic 28-amino acid peptide containing eight Tyr residues placed in different amino acid contexts (ULightTM-TK (PT66)) were selected as specific substrates for GSK-3β and FYNα, respectively. Briefly, test compounds and staurosporine (reference compound) or DMSO (control) are mixed with the enzyme (GSK-3β: 2 nM and FYNα: 1 nM) in a buffer containing 50 mM HEPES (pH 7.5), 1 mM EGTA, 10 mM MgCl2, 2 mM DTT, and 0.01% Tween-20. […] Following incubation, the reaction is stopped by adding 6 mM EDTA. After 5 min, the antiphospho antibody labeled with europium chelate is added. After 1 more hour, the kinase reaction is monitored by irradiation at 320 nm and the fluorescence measured at 615 and 665 nm, using EnVision 2014 Multilabel Reader (PerkinElmer). The calculated signal ratio at 665/615 nm is proportional to the extent of ULight-substrate phosphorylation. The compounds were tested at 11 different concentrations ranging from 3 nM up to 100 μM in triplicate. […] The results were expressed as a percent inhibition of the control enzyme activity.
Chain of FYNα (P06241 whole entry): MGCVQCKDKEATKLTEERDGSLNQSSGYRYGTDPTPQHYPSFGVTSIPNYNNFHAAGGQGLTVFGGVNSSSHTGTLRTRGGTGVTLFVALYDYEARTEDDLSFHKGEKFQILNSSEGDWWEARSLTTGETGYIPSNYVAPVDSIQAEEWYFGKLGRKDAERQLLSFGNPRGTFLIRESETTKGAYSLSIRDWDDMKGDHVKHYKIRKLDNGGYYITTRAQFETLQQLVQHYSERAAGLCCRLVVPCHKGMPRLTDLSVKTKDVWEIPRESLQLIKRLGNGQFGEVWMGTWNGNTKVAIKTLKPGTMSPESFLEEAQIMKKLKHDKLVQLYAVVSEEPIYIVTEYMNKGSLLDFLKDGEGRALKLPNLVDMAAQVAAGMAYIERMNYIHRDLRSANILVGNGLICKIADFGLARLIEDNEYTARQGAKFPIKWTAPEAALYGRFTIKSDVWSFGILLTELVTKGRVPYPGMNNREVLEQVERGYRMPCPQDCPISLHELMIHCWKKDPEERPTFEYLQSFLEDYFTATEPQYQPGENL
Dose–response curves were run in at least three independent experiments, performed in three technical replicates. IC50 values (concentrations causing half-maximal enzyme inhibition) were determined by nonlinear regression analysis of the Log[concentration]/response curves generated with mean replicate values using a four parameter Hill equation curve fitting with GraphPad Prism 8 (GraphPad Software Inc., CA-USA).
On to `Br.Clc1ccc(CNc2nc(-c3c[nH]c4ncccc34)cs2)cc1` [Compound 20, N-(4-Chlorobenzyl)-4-(1H-pyrrolo[2,3-b]pyridin-3-yl)thiazol-2-amine Hydrobromide], for which the “Fyn % Inhibition @ 50 μM” value is recorded as “n.i”.
On to `Br.Clc1cccc2c(-c3csc(NCc4ccccc4)n3)c[nH]c12` [Compound 37], for which the “Fyn % Inhibition @ 50 μM” value is on record as “n.i”.
Consider `Br.O=C(Nc1nc(-c2c[nH]c3ncccc23)cs1)c1ccccc1` [Compound 32, N-(4-(1H-Pyrrolo[2,3-b]pyridin-3-yl)thiazol-2-yl)benzamide Hydrobromide], for which the “Fyn % Inhibition @ 50 μM” value is “n.i”.

The test is the same for the next values; noted with them: 50 μM; mean ± SD; n.i. = no inhibition; read-out: Fyn % Inhibition @ 50 μM.
As for `CN(C)c1ccc(Nc2nc(-c3c[nH]c4ncccc34)cs2)cc1` [Compound 15, N ^1-(4-(1H-Pyrrolo[2,3-b]pyridin-3-yl)thiazol-2-yl)-N,^4 N ^4-dimethylbenzene-1,4-diamine Hydrobromide], the inhibition at 50 µM was found to be 11.4%.
Take `Nc1ccc(Nc2nc(-c3c[nH]c4ncccc34)cs2)cc1` [Compound 16]: the inhibition at 50 µM worked out at 42.9%.
On to `c1ccc(Nc2nc(-c3c[nH]c4ncccc34)cs2)cc1` [Compound 6, N-Phenyl-4-(1H-pyrrolo[2,3-b]pyridin-3-yl)thiazol-2-amine], for which the inhibition at 50 µM was 40%.

Staying with this test, now noted: mean ± SD of at least three independent determinations; ATP near Km; read-out: Fyn IC50.
As to `Clc1cccc(CNc2nc(-c3c[nH]c4ncccc34)cs2)c1` [Compound 19, N-(3-Chlorobenzyl)-4-(1H-pyrrolo[2,3-b]pyridin-3-yl)thiazol-2-amine Hydrobromide], the IC50 amounted to 4.71 ± 0.55 µM.
Regarding `Fc1ccc(CNc2nc(-c3c[nH]c4ncccc34)cs2)cc1` [Compound 21, N-(4-Fluorobenzyl)-4-(1H-pyrrolo[2,3-b]pyridin-3-yl)thiazol-2-amine Hydrobromide], the 50% inhibitory concentration (IC50) amounted to 7.1 ± 0.47 µM.
For the molecule `c1ccc(CNc2nc(-c3c[nH]c4ncccc34)cs2)cc1` [Compound 7, N-Benzyl-4-(1H-pyrrolo[2,3-b]pyridin-3-yl)thiazol-2-amine Hydrobromide], the half-maximal inhibitory concentration (IC50) was 2.04 ± 0.53 µM.
On to `Cc1sc(NCc2ccccc2)nc1-c1c[nH]c2ncccc12` [Compound 39, N-Benzyl-5-methyl-4-(1H-pyrrolo[2,3-b]pyridin-3-yl)thiazol-2-amine Hydrobromide], for which the IC50 worked out at 0.39 ± 0.11 µM.
In the case of `O=[N+]([O-])c1ccc(CNc2nc(-c3c[nH]c4ncccc34)cs2)cc1` [Compound 24, N-(4-Nitrobenzyl)-4-(1H-pyrrolo[2,3-b]pyridin-3-yl)thiazol-2-amine Hydrobromide], the 50% inhibitory concentration (IC50) is 5.21 ± 0.51 µM.
Regarding `c1cnc2[nH]cc(-c3csc(NCc4cnccn4)n3)c2c1` [Compound 30, N-(Pyrazin-2-ylmethyl)-4-(1H-pyrrolo[2,3-b]pyridin-3-yl)thiazol-2-amine Hydrobromide], the IC50 was 7.39 ± 0.37 µM.
Take `Clc1ccccc1CNc1nc(-c2c[nH]c3ncccc23)cs1` [Compound 18, N-(2-Chlorobenzyl)-4-(1H-pyrrolo[2,3-b]pyridin-3-yl)thiazol-2-amine Hydrobromide]: the half-maximal inhibitory concentration (IC50) was found to be 5.37 ± 1.29 µM.
As to `c1cnc(CNc2nc(-c3c[nH]c4ncccc34)cs2)nc1` [Compound 29, N-(Pyrimidin-2-ylmethyl)-4-(1H-pyrrolo[2,3-b]pyridin-3-yl)thiazol-2-amine Hydrobromide], the 50% inhibitory concentration (IC50) came out at 15 ± 1.26 µM.
For the molecule `COc1ccccc1CNc1nc(-c2c[nH]c3ncccc23)cs1` [Compound 17, N-(2-Methoxybenzyl)-4-(1H-pyrrolo[2,3-b]pyridin-3-yl)thiazol-2-amine Hydrobromide], the IC50 is 7.29 ± 1.03 µM.
For `Brc1cnc2[nH]cc(-c3csc(NCc4ccccc4)n3)c2c1` [Compound 38, N-Benzyl-4-(5-bromo-1H-pyrrolo[2,3-b]pyridin-3-yl)thiazol-2-amine Hydrobromide], the concentration for half-maximal inhibition (IC50) amounted to 0.55 ± 0.02 µM.
Consider `Nc1ccc(CNc2nc(-c3c[nH]c4ncccc34)cs2)cc1` [Compound 25], for which the IC50 was found to be 18.5 ± 2.49 µM.

(Values after article PMC12406253, “Exploration of the Neuromodulatory Properties of Fyn and GSK-3β Kinases Exploiting 7‑Azaindole-Based Inhibitors” (Journal of Medicinal Chemistry, 2025).)
